2 molecules from US11845770B2, “Ascaroside derivatives and methods of use” (California Institute of Technology, priority 2019, dated 2023) can be followed below.

The nature of data set [1]: Stability in hepatocytes (rat). It is filed as in vitro ADME. The following applies: cryopreserved rat hepatocytes (suspension). As for the experimental part: 10 mM of 1 was provided as a 1000× stock solution in dimethylsulfoxide (DMSO), and the stock solution was diluted to 1 mM with DMSO in 96-well plates. 30 mM of positive compounds (7-ethoxycoumarin and 7-hydroxycoumarin) were provided as a 1000× stock solution in DMSO, and the stock solution was diluted to 3 mM with DMSO in 96-well plates. 20 μL of 1000× stock solution of each compound were pipetted and was mixed with 380 μL of 45% MeOH/H2O to obtain 50 μM of 1 and 150 μM of the positive control compound solutions to form 50× intermediate solutions. 20 μL of 50× intermediate solution of each compound were pipetted and was mixed with […] of pre-warmed incubation medium to obtain 5 μM of 1 and 15 μM of the positive control compound solutions to form 5× working solutions. The incubation medium was Williams' Medium E (no phenol red) containing 2 mM L-glutamine and 25 mM HEPES. 10 μL of 5× working solutions of each compound were pipetted into appropriate wells in a 96-well plate for time points of 0 minutes, 15 minutes, 30 minutes, 60 minutes, and 90 minutes in duplicates. The plates with compounds were kept warm in an incubator at 37° C.
A cell suspension was prepared by thawing cryopreserved cells, isolating the cells, and suspending the cells in thawing medium. […]
The remaining percentage of 1 after incubation was calculated according to the following equation. […]

Another data set addresses T1, CYP2D6 (Homo sapiens, UniProt P10635).
T1 construct: from tissue
Briefly: 5 in 1 CYP inhibition assay, CYP2D6. It is filed as in vitro ADME. The following applies: microsomes, probe dextromethorphan (O-demethylation), test compound 10 μM, n=2, read-out: inhibition of cytochrome P450 isoform 2D6. As for the experimental part: (§1) CYP450 dependent activities were determined using a marker substrate cocktail. For each reaction, enzyme activities in the presence and absence of test compound (10 μM) were measured in duplicate. A known inhibitor for each isoform, tested at a single concentration (3 μM, n=2), was included as positive control. Incubation mixtures containing microsomes, substrate, and standard inhibitor or test compound were warmed at 37° C. for 10 minutes. Reactions were initiated by addition of the NADPH and incubated for 10 min. [table] After incubation, ice cold acetonitrile was added to terminate the reaction. Generation of metabolites from the substrate reactions was determined by LC-MS/MS.

For data set [2], the system named is THP-1 derived macrophages. Briefly: Stimulation of THP-1 cells, cytokine release 72 h post stimulation. It counts as cell-based, human. The following applies: 72 h post stimulation (IFN-γ + LPS); 0.1, 1, 10, 100 or 200 μM vs 0 μM. As for the experimental part: Human immortalized monocytic THP-1 cells were maintained in phenol red free RPMI 1640 medium containing 10% (v/v) fetal bovine serum (FBS), 2 mM L-glutamine, penicillin (100 units/mL), streptomycin (100 μg/mL), amphotericin B (2.5 μg/mL), and 50 μM beta-mercaptoethanol (BME) at 37° C. with 5% (v/v) CO2. THP-1 cells were seeded in 1 mL of THP-1 medium (cell culture medium containing 10% (v/v) FBS, 2 mM L-glutamine, penicillin (100 units/mL), streptomycin (100 μg/mL), amphotericin B (2.5 μg/mL), and 50 μM BME)/well at a density of 1 million cells/mL in six-well plates. Cells were differentiated by adding 100 nM phorbol 12-myristate 13-acetate (PMA) to each well before incubating cells for 5.5 h at 37° C. with 5% (v/v) CO2. Without removing the media, different concentrations (either 0, 0.1, 1, 10, 100, or 200 μM) of 1 and 10 were added to each well. Cells were stimulated, within 30 min by adding 20 ng/mL interferon gamma (IFN-γ) and 100 ng/mL lipopolysaccharide (LPS) to each well. Following stimulation, the THP-1 cells were incubated for 72 h at 37° C. with 5% (v/v) CO2. Supernatant was collected and stored at −80° C. until use.
IL-6 release from supernatant collected at 72 hours post stimulation was measured using the AlphaLISA Human IL-6 detection kit.
TNFα release from supernatant collected at 72 hours post stimulation was measured using the AlphaLISA Human TNFα detection kit.

In another data set the target is T2, CYP2C9 (Homo sapiens, UniProt P11712).
T2 construct: from tissue
T2 sequence (P11712 whole entry): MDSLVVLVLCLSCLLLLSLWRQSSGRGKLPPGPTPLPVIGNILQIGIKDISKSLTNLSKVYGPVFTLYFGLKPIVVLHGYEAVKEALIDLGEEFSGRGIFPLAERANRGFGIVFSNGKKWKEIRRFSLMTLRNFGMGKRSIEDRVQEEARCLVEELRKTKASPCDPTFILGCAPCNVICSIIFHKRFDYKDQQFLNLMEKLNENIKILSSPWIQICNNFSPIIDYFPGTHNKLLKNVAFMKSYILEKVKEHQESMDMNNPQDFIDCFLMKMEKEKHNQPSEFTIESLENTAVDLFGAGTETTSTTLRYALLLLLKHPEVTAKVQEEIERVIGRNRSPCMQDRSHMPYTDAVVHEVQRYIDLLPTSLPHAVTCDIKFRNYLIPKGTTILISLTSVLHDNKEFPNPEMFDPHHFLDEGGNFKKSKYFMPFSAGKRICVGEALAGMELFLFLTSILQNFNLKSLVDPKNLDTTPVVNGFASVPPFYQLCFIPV
Briefly: 5 in 1 CYP inhibition assay, CYP2C9. It counts as in vitro ADME. The following applies: microsomes, probe diclofenac (4′-hydroxylation), test compound 10 μM, n=2, read-out: inhibition of cytochrome P450 isoform 2C9. As for the experimental part:
as §1

The target in another data set is T3, CYP2C19 (Homo sapiens, UniProt P33261).
T3 construct: from tissue
T3 sequence (P33261 whole entry): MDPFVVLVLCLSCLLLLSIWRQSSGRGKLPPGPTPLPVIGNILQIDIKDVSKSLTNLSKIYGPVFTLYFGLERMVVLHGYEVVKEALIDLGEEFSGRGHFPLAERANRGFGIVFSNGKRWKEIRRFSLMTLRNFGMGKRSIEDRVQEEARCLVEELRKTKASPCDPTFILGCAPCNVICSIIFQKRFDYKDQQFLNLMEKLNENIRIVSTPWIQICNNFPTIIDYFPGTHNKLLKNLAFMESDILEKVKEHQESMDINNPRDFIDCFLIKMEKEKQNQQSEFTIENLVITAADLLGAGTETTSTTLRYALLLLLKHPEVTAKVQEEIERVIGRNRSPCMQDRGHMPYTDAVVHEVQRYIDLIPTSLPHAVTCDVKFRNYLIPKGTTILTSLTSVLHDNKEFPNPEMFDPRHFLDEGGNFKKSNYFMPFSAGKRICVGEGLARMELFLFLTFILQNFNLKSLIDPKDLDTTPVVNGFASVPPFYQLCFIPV
Briefly: 5 in 1 CYP inhibition assay, CYP2C19. It counts as in vitro ADME. The following applies: microsomes, probe S-mephenytoin (4′-hydroxylation), test compound 10 μM, n=2, read-out: inhibition of cytochrome P450 isoform 2C19. As for the experimental part:
as §1

The term half-life denotes how long it takes for the measured level to halve. One may read the inhibition as the change of the read-out against control, counted positive when it falls.

SMILES strings stand for the structures. “Also recorded” adds a separate entry of the source.

T1 sequence (P10635 whole entry): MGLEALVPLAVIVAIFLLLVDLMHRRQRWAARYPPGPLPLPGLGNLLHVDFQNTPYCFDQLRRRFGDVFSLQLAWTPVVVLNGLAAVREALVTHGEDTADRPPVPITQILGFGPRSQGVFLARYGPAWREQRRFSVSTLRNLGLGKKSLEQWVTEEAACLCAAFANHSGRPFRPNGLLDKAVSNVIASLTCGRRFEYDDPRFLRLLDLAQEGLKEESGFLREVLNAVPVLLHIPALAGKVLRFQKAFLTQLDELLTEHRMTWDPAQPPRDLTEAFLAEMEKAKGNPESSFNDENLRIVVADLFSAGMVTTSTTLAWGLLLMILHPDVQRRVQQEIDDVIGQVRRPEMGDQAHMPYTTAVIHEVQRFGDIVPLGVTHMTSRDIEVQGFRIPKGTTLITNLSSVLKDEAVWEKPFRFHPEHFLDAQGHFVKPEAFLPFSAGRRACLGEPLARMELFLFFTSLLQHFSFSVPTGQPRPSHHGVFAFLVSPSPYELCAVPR

Molecule `C[C@H](CC/C=C/C(=O)O)O[C@@H]1O[C@@H](C)[C@H](O)C[C@H]1O` [ascr #7, reference compound] displayed a half-life at 1 µM in data set [1] of over 217 min. Moreover, the inhibition at 10 min, 10 µM on CYP2D6 was found to be 4.6%; at CYP2C9, 0%; on CYP2C19, 4%. Also, the “fold change of IL-6 levels secreted by the THP1-derived macrophages” value in data set [2] is given as “significantly reduced”.
In data set [1], `C[C@H](CC/C=C/C(=O)OC(C)(C)C)O[C@@H]1O[C@@H](C)[C@H](O)C[C@H]1O` [Compound 1, tert-butyl (2E,6R)-6-{[(2R,3R,5R,6S)-3,5-dihydroxy-6-methyloxan-2-yl]oxy}hept-2-enoate] showed a half-life at 1 µM of 23.1 min. In addition, the inhibition at 10 min, 10 µM at CYP2D6 worked out at 10.1%; at CYP2C9 it was 4.3%; on CYP2C19, 16.2%. For the same molecule, the “fold change of IL-6 levels secreted by the THP1-derived macrophages” value in data set [2] is “reduced these levels significantly; also recorded: even more significantly reduced”. Besides, the “fold change of TNFα levels secreted by the THP1-derived macrophages” value in data set [2] is “reduced these levels significantly”.
